Reference: ChEMBL document CHEMBL5230122, “Natural products and other inhibitors of F1FO ATP synthase” (Eur J Med Chem, 2020)

Columns and labels:
[1] = Inhibition of bovine heart mitochondrial F0F1-ATP synthase for 1 hr by microplate reader analysis; format: mitochondria, Bos taurus, Mitochondria
HepG2 = experiment: Cytotoxicity against human HepG2 cells assessed as reduction in glucose induced mitochondrial toxicity by measuring ATP depletion incubated for 24 hrs by CellTiter-Glo luminescent cell viability assay; format: functional, cell-based; settings: HepG2, 24 h
[2] = Binding affinity to mitochondrial ATP5A in mouse HT-22 cells measured after 15 mins by LC/MS/MS based pull-down assay; format: cell-based
Cortical neurone = experiment: Neuroprotective activity against rat Primary cortical neuron cells assessed as rescue of cell death incubated for 2 days by fluorescent live-dead assay; format: functional, cell-based; settings: 48 h
[3] = Neuroprotective activity against amyloid beta induced cell death in rat Primary hippocampal neuron cells assessed as increase in cell viability incubated for 2 days by lactate dehydrogenase release assay; format: functional, cell-based; settings: Hippocampal neurone, 48 h
HL-60 = experiment: Anticancer activity against human HL-60 cells assessed as reduction in cell viability incubated for 72 hrs by CCK-8 assay; format: functional, cell-based; settings: HL-60, 72 h
MCF7 [4] = experiment: Anticancer activity against human MCF7 cells assessed as reduction in cell viability incubated for 72 hrs by CCK-8 assay; format: functional, cell-based; settings: MCF7, 72 h
NCI-H1299 = experiment: Anticancer activity against human NCI-H1299 cells assessed as reduction in cell viability incubated for 72 hrs by CCK-8 assay; format: functional, cell-based; settings: NCI-H1299, 72 h
LoVo = experiment: Anticancer activity against human LoVo cells assessed as reduction in cell viability incubated for 72 hrs by CCK-8 assay; format: functional, cell-based
SK-OV-3 = experiment: Anticancer activity against human SK-OV-3 cells assessed as reduction in cell viability incubated for 72 hrs by CellTiter-Glo luminescent cell viability assay; format: functional, cell-based; settings: SK-OV-3, 72 h
Jurkat = experiment: Anticancer activity against human Jurkat cells assessed as reduction in cell viability incubated for 72 hrs by CellTiter-Glo luminescent cell viability assay; format: functional, cell-based
HCT-116 = experiment: Anticancer activity against human HCT-116 cells assessed as reduction in cell viability incubated for 72 hrs by CellTiter-Glo luminescent cell viability assay; format: functional, cell-based; settings: HCT-116, 72 h
KB 3-1 = experiment: Anticancer activity against human KB-3-1 cells assessed as reduction in cell viability incubated for 72 hrs by CellTiter-Glo luminescent cell viability assay; format: functional, cell-based; settings: KB 3-1, 72 h
SW480 = experiment: Anticancer activity against human SW480 cells assessed as reduction in cell viability incubated for 72 hrs by CellTiter-Glo luminescent cell viability assay; format: functional, cell-based; settings: SW480, 72 h
U-937 = experiment: Anticancer activity against human U-937 cells assessed as reduction in cell viability incubated for 72 hrs by CellTiter-Glo luminescent cell viability assay; format: functional, cell-based; settings: U-937, 72 h
A549 = experiment: Antiproliferative activity against human A549 cells assessed as reduction in cell proliferation incubated for 48 hrs by xCELLigence RTCA system analysis; format: functional, cell-based; settings: A549, 48 h
CL1-0 = experiment: Antiproliferative activity against human CL1-0 cells assessed as reduction in cell proliferation incubated for 48 hrs by xCELLigence RTCA system analysis; format: functional, cell-based; settings: CL1-0, 48 h
MCF7 [5] = experiment: Antiproliferative activity against human MCF7 assessed as inhibition of cell viability incubated for 72 hrs by CCK-8 assay; format: functional, cell-based; settings: MCF7, 72 h
T47D = experiment: Antiproliferative activity against human T47D assessed as inhibition of cell viability incubated for 72 hrs by CCK-8 assay; format: functional, cell-based
[6] = Inhibition of bovine heart mitochondria ATP synthase in presence of PEP, PK, LDH and NADH for 1 hrs by MitoTox microplate assay; parameters: species or system Bos taurus
[7] = Inhibition of bovine heart mitochondrial F0F1-ATP synthase assessed as reduction in NADH oxidation for 40 mins by MitoTox Complex V OXPHOS activity microplate assay; format: mitochondria, Bos taurus, Mitochondria
[8] = Inhibition of thrombin-induced hyperpermeability of human HMEC-1 cells at 10 uM preincubated for 20 mins followed by thrombin addition and measured for 60 mins by transwell assay; format: functional; settings: HMEC-1, 1.333 h, time 80 min
PC-12 [9] = experiment: Cytoprotective activity against glutamate induced-toxicity in rat PC-12 cells assessed as reduction in cell death for 24 hrs by MTT assay; format: functional, cell-based; settings: PC-12, 24 h
PC-12 [10] = experiment: Cytoprotective activity against KCN induced-toxicity in rat PC-12 cells assessed as reduction in cell death for 24 hrs by MTT assay; format: functional, cell-based; settings: PC-12, 24 h
Rattus norvegicus = organism: Rattus norvegicus; experiment: Inhibition of rat liver mitochondrial F0F1-ATP synthase hydrolytic activity at 5 uM in presence of MgATP; settings: Mitochondria
CAKI-1 = experiment: Antiproliferative activity against human CAKI-1 cells assessed as reduction in cell proliferation incubated for 96 hrs by Cell TiterGlo assay; format: functional, cell-based; settings: CAKI-1, 96 h
[11] = Non-competitive inhibition of bovine heart mitochondrial F0F1-ATP synthase incubated for 25 mins by ATPase assay; format: mitochondria, Bos taurus, Mitochondria

For `Cc1oncc1C(=O)Nc1ccc(C(F)(F)F)cc1` [LEFLUNOMIDE], which IC50 [1] is on record?
The IC50 was 35 µM.

What about the IC50 (HepG2) of the same compound?
Its IC50 is 110 µM.

For `COc1cccc(/C=N/N(C(=O)C(F)(F)F)c2ccc(C)cc2C)c1` [J147], which EC50 [2] is on record?
Its EC50 is 0.02 µM.

And the EC50 (Cortical neurone)?
Its EC50 is 0.025 µM.

What about the EC50 [3] of the same compound?
The EC50 was 0.2 µM.

With `CC(=O)C(=O)N[C@H](C(=S)N[C@@H](CC[S+](C)[O-])C(=S)N[C@@H](C)C(=O)N[C@@H](C)C(=S)N[C@@H](C)C(=S)N[C@@H](C)C(=O)N[C@H]1C(=O)N[C@@H](C(C)C)C(=O)N[C@@H](C)C(=O)N[C@@H](Cc2ccccc2)C(=O)N[C@@H](C(O)c2cn(C)c[n+]2C)C(=O)N/C=C\SC1C)C(C)C` (some centres not stated) as the compound, how does the IC50 (HL-60) read?
Its IC50 is 1.47 µM.

And the IC50 (MCF7 [4])?
The IC50 was 0.83 µM.

What about the IC50 (NCI-H1299) of the same compound?
Its IC50 is 5.02 µM.

And the IC50 (LoVo)?
The IC50 was 1.18 µM.

What about the IC50 (SK-OV-3) of the same compound?
The IC50 was 20.9 µM.

What about the IC50 (Jurkat) of the same compound?
The IC50 was 5.28 µM.

What about the IC50 (HCT-116) of the same compound?
Its IC50 is 0.51 µM.

And the IC50 (KB 3-1)?
Its IC50 is 4.49 µM.

What about the IC50 (SW480) of the same compound?
Its IC50 is 12.2 µM.

And the IC50 (U-937)?
The IC50 was 16.9 µM.

Which results are given for `COc1cc(=O)oc(/C=C/C=C/C=C/C(C)=C/[C@]2(C)O[C@H](C)[C@](C)(O)[C@H]2O)c1C`?
IC50 (A549): 1.5 µM; IC50 (CL1-0): 1.5 µM

With `CCC(C)N(C)C(=O)c1cc2ccccc2c(-c2ccccc2Cl)n1` (configuration not stated) [PK-11195] as the compound, how does the IC50 (MCF7 [5]) read?
The IC50 was 0.0054 µM.

And the IC50 (T47D)?
Its IC50 is 0.006 µM.

For `CNC(=O)c1cc(Oc2ccc(NC(=O)Nc3ccc(Cl)c(C(F)(F)F)c3)cc2)ccn1` [SORAFENIB], which IC50 [6] is on record?
Its IC50 is 2.5 µM.

With `C=C1CC[C@@]2(OC1)O[C@H]1C[C@H]3[C@@H]4CC=C5C[C@H](O)C[C@H](O[C@@H]6OC[C@H](O)[C@H](O)[C@H]6O[C@@H]6O[C@@H](C)[C@H](O)[C@@H](O)[C@H]6O)[C@]5(C)[C@H]4CC[C@]3(C)[C@H]1[C@@H]2C` as the compound, how does the Ki [7] read?
Its Ki is 10 µM.

What about the inhibition at 10 µM [8] of the same compound?
Its inhibition at 10 µM is 41.9%.

Which IC50 (PC-12 [9]) does the source give for `CCOC(=O)C1=C(C)NC2=C(C=Nc3ccccc3N2)[C@@H]1c1ccccc1[N+](=O)[O-]` here?
Its IC50 is 0.029 µM.

What about the IC50 (PC-12 [10]) of the same compound?
The IC50 was 0.008 µM.

And the inhibition (Rattus norvegicus)?
The inhibition was 67%.

Which IC50 (CAKI-1) does the source give for `Nc1ncnc2c1nc(Cl)n2[C@@H]1O[C@H](CO)[C@@H](O)[C@H]1O` [8-CHLOROADENOSINE] here?
Its IC50 is 2 µM.

For `NCCc1ccc(Oc2ccc(O)cc2)c(I)c1`, which IC50 [11] is on record?
The IC50 was 27.5 µM.
